# Experiments:
# A549 = experiment: Cytotoxicity against human A549 cells assessed as reduction in cell viability by SRB assay; type: functional, cell-based
# [1] = Cytotoxicity against rat ASK cells assessed as reduction in cell viability by SRB assay; type: functional, cell-based
# MCF7 [2] = experiment: Potency index, ratio of andrographolide IC50 to test compound IC50 for cytotoxicity against human MCF7 cells; type: functional
# [3] = Cytotoxicity against human K213 cells assessed as reduction in cell viability by SRB assay; type: functional, cell-based
# [4] = Cytotoxicity against human K055 cells assessed as reduction in cell viability by SRB assay; type: functional, cell-based
# MCF7 [5] = experiment: Cytotoxicity against human MCF7 cells assessed as reduction in cell viability by SRB assay; type: functional, cell-based
# KB [6] = experiment: Cytotoxicity against human KB cells assessed as reduction in cell viability by SRB assay; type: functional, cell-based
# HT-29 = experiment: Cytotoxicity against human HT-29 cells assessed as reduction in cell viability by SRB assay; type: functional, cell-based
# [7] = Cytotoxicity against human P388 cells assessed as reduction in cell viability by SRB assay; type: functional, cell-based
# [8] = Potency index, ratio of andrographolide IC50 to test compound IC50 for cytotoxicity against […] cells; type: functional
# [9] = Potency index, ratio of andrographolide IC50 to test compound IC50 for cytotoxicity against human K213 cells; type: functional
# KB [10] = experiment: Potency index, ratio of andrographolide IC50 to test compound IC50 for cytotoxicity against human KB cells; type: functional
# [11] = Potency index, ratio of andrographolide IC50 to test compound IC50 for cytotoxicity against human K055 cells; type: functional
SMILES,IC50 (A549) [µM],IC50 [1] [µM],Ratio IC50 (MCF7 [2]),IC50 [3] [µM],IC50 [4] [µM],IC50 (MCF7 [5]) [µM],IC50 (KB [6]) [µM],IC50 (HT-29) [µM],IC50 [7] [µM],Ratio IC50 [8],Ratio IC50 [9],Ratio IC50 (KB [10]),Ratio IC50 [11]
C=C1[C@@H](OC(C)=O)C[C@@H]2[C@](C)(CO[Si](C)(C)C(C)(C)C)[C@H](OC(C)=O)CC[C@@]2(C)[C@@H]1C[C@@H](Nc1cccc(F)c1)C1=CCOC1=O,4.06,3.7,7,5.28,5.41,3.82,4.56,4.52,2.81,,,,
C=C1[C@@H](OC(C)=O)C[C@@H]2[C@](C)(CO[Si](C)(C)C(C)(C)C)[C@H](OC(C)=O)CC[C@@]2(C)[C@@H]1C[C@@H](Nc1ccc(F)cc1)C1=CCOC1=O,4.55,4.63,7,5.25,5.43,4.34,5.09,4.94,4,,,,
C=C1[C@@H](OC(C)=O)C[C@@H]2[C@](C)(CO[Si](C)(C)C(C)(C)C)[C@H](OC(C)=O)CC[C@@]2(C)[C@@H]1C[C@@H](Nc1ccccc1)C1=CCOC1=O,4.5,4.96,,5.7,4.43,4.84,5.71,4.05,4.4,9,,,
C=C1[C@@H](OC(C)=O)C[C@@H]2[C@](C)(CO[Si](C)(C)C(C)(C)C)[C@H](OC(C)=O)CC[C@@]2(C)[C@@H]1C/C=C1/C(=O)OC[C@H]1OC(C)=O,4.64,4.11,,4.81,4.43,4.54,5.02,4.94,0.43,,8,8,8
C=C1[C@@H](OC(C)=O)C[C@@H]2[C@](C)(CO[Si](C)(C)C(C)(C)C)[C@H](OC(C)=O)CC[C@@]2(C)[C@@H]1C[C@@H](Nc1ccc(Br)cc1)C1=CCOC1=O,4.15,4.84,7,5.44,5.34,3.92,5.23,4.59,4.19,,,,
